# Data from patent US20230135877A1, “COMPOSITIONS AND METHODS FOR TREATING AND PREVENTING LUNG DISEASE” (Arizona Board of Regents on Behalf of the University of …, priority 2020, published 2023).
# Entries after “also recorded” stand apart in the source; their conditions may differ. Where two headings read alike, the source gives them in different places. Where a SMILES comes first, the peptide text is derived from it. Bridges are numbered along the chain shown (N, C = ends). Roman numbers before positions name the chains, in order. Where no end group is shown, it is not given here. [ ]: non-standard residue; d: D form. Nle = CCCC[C@H](N)C(=O)O
# Experiments:
# eosinophils = experiment: Eosinophil cytotoxicity by real-time impedance tracing (xCELLigence RTCA); assay type: cell-based, IL-5 transgenic mice; settings: for cytotoxic effect on eosinophils as measured by AUC: 3 μg/ml; for Average magnitude of largest AUC: AUC of normalized cell index, negative AUC = cell death; for average AUC (decrease in cell index): 30 μg/ml; for normalized cell index tracings over time (peptide activity): after 24 hours
# Source text: IL-5 transgenic mice were euthanized and blood collected by cardiac puncture through the left ventricle. Red blood cells (RBCs) were lysed using a red blood cell lysis solution (Miltenyi Biotec, Auburn CA). Eosinophils were isolated by negative selection using biotin-conjugated antibodies (CD45R, Thy 1.2, F4/80) and magnetic beads, as previously described (see, Dy, A. B. C., et al., 2019 J Immunol 203: 1122-1130; Ledford, J. G., et al., 2012 PLoS One 7: e32436). Purity of each preparation was verified using standard morphometric analysis of cytocentrifuged slides stained with Easy III™ rapid differential staining kit (Azer Scientific, Morgantown Pa.) to be greater than 95%.
# High throughput real-time monitoring of eosinophil cell death was assessed by measuring electrical impedance using the xCELLigence Real-Time Cell Analyzer (ACEA Biosciences, San Diego Calif.) as previously described (see, Dy, A. B. C., et al., 2019 J Immunol 203: 1122-1130; Flynn, A. N., et al., FASEB J 27: 1498-1510; Zeng, C., et al., Environ Res 164: 452-458). Using 96-well gold electrode coated plates (E-plates, ACEA Biosciences) incubated at 37° C. and 5% CO2, an initial background reading was obtained with media only. In a total volume of […] were seeded at 1×10^6 cells/well and allowed to settle for ˜5 hours. Test compounds were added at various concentrations (1, 3, 10 and 30 μg/ml) and changes in electrical impedance were measured over time. Impedance measurements were calculated and presented as normalized cell index (see, Flynn, A. N., et al., FASEB J 27: 1498-1510; Zeng, C., et al., Environ Res 164: 452-458), where a decrease in cell index corresponds to an increase in eosinophil cytotoxicity. Impedance tracings over time were derived from averages of 3-4 technical replicates. To quantify and compare cytotoxicity, the area under the curve (AUC) was calculated using cell index values. Half maximal effective concentration (EC50) values were generated using equivalent molar concentrations and their corresponding dose-response curves for each peptidomimetic.
# mouse model of asthma = experiment: HDM experimental allergen challenge, in vivo mouse model of asthma; design: species or system mice; settings: pre-clinical mouse model of asthma; preliminary data
# Source text: FIG. 1A-C. Evaluation of SP-A-derived 10-mer native peptide in an in vivo mouse model of asthma. A) Schematic of HDM experimental allergen challenge. B) Newtonian resistance
# (Rn) during methacholine challenge of wild-type mice 6 days after terminal HDM challenge. C) Total eosinophil counts in BAL (left panel) and mucin production (right panel) by PAS scoring. Unpaired t-test, *p<0.05, **p<0.01.
# [1] = Table 3 summary of lead peptidomimetics, eosinophils, RTCA, read-out: EC50
Molecule,"Average magnitude of largest AUC (eosinophils; eosinophils, RTCA)","Concentration at which average AUC is largest (eosinophils; eosinophils, RTCA)",EC50 (eosinophils),other results
"CSCC[C@H](NC(=O)[C@H](CCC(=O)O)NC(=O)[C@@H](NC(=O)[C@H](CSSC[C@H](NC(=O)[C@H](CCC(N)=O)NC(=O)[C@H](CCC(=O)O)NC(=O)[C@H](CCCCN)NC(C)=O)C(=O)N[C@H](C(=O)N[C@@H](CCC(=O)O)C(=O)N[C@@H](CCSC)C(=O)N[C@@H](Cc1ccc(O)cc1)C(=O)N[C@H](C(=O)N[C@@H](CC(=O)O)C(N)=O)[C@@H](C)O)C(C)C)NC(=O)[C@H](CCC(N)=O)NC(=O)[C@H](CCC(=O)O)NC(=O)[C@H](CCCCN)NC(C)=O)C(C)C)C(=O)N[C@@H](Cc1ccc(O)cc1)C(=O)N[C@H](C(=O)N[C@@H](CC(=O)O)C(N)=O)[C@@H](C)O [Peptidomimetic 868, (Ac-KEQCVEMYTD-NH2)2] (I: Ac-KEQCVEMYTD-NH2 / II: Ac-KEQCVEMYTD-NH2; disulfide I:4-II:4)",−9.21,1.17 µM,–,cytotoxic effect on eosinophils as measured by AUC (eosinophils): most robust cytotoxic effect; also recorded: most comparable response to full-length SP-A; EC50 (eosinophils; [1]): 10.9 µM
"CCCC[C@H](NC(=O)[C@H](CCC(=O)O)NC(=O)[C@@H](NC(=O)[C@H](CS)NC(=O)[C@H](CCC(N)=O)NC(=O)[C@H](CCC(=O)O)NC(=O)[C@H](CCCCN)NC(C)=O)C(C)C)C(=O)N[C@@H](Cc1ccc(O)cc1)C(=O)N[C@H](C(=O)N[C@@H](CC(=O)O)C(N)=O)[C@@H](C)O [Peptidomimetic 882, Ac-KEQCVE-Nle-YTD-NH2] (Ac-KEQCVE[Nle]YTD-NH2)",–,–,3 µM,–
"CCCC[C@H](NC(=O)[C@H](CCC(=O)O)NC(=O)[C@@H](NC(=O)[C@H](C)NC(=O)[C@H](CCC(N)=O)NC(=O)[C@H](CCC(=O)O)NC(=O)[C@H](CCCCN)NC(=O)CNC(=O)[C@H](Cc1c[nH]c2ccccc12)NC(C)=O)C(C)C)C(=O)N[C@@H](Cc1ccc(O)cc1)C(=O)N[C@H](C(=O)N[C@@H](CC(=O)O)C(N)=O)[C@@H](C)O [Peptidomimetic 891, Ac-WGKEQAVE-Nle-YTD-NH2] (Ac-WGKEQAVE[Nle]YTD-NH2)",–,–,1.03 µM,–
"CCCC[C@H](NC(=O)[C@H](CCC(=O)O)NC(=O)[C@@H](NC(=O)[C@H](CS)NC(=O)[C@H](CCC(N)=O)NC(=O)[C@H](CCC(=O)O)NC(=O)[C@H](CCCCN)NC(=O)CNC(=O)[C@H](Cc1c[nH]c2ccccc12)NC(C)=O)C(C)C)C(=O)N[C@@H](Cc1ccc(O)cc1)C(=O)N[C@H](C(=O)N[C@@H](CC(=O)O)C(N)=O)[C@@H](C)O [Peptidomimetic 892, Ac-WGKEQCVE-Nle-YTD-NH2] (Ac-WGKEQCVE[Nle]YTD-NH2)",−1.07,0.10 µM,0.008 µM,"magnitude of the calculated AUCs compared with full-length SP-A, 10-mer, 20-mer and several peptidomimetics (eosinophils; eosinophils, RTCA): much smaller"
"CCCC[C@H](NC(=O)[C@H](CCC(=O)O)NC(=O)[C@@H](NC(=O)[C@H](CS)NC(=O)[C@H](CCC(N)=O)NC(=O)[C@H](CCC(=O)O)NC(=O)[C@H](CCCCN)NC(=O)CNC(=O)[C@H](CCCNC(=N)N)NC(C)=O)C(C)C)C(=O)N[C@@H](Cc1ccc(O)cc1)C(=O)N[C@H](C(=O)N[C@@H](CC(=O)O)C(N)=O)[C@@H](C)O [Peptidomimetic 893, Ac-RGKEQCVE-Nle-YTD-NH2] (Ac-RGKEQCVE[Nle]YTD-NH2)",–,–,0.038 µM,–
"CCCC[C@H](NC(=O)[C@H](CCC(=O)O)NC(=O)[C@@H](NC(=O)[C@H](CS)NC(=O)[C@H](CCC(N)=O)NC(=O)[C@H](CCC(=O)O)NC(=O)[C@H](CCCCN)NC(=O)CNC(=O)[C@@H](Cc1c[nH]c2ccccc12)NC(C)=O)C(C)C)C(=O)N[C@@H](Cc1ccc(O)cc1)C(=O)N[C@H](C(=O)N[C@@H](CC(=O)O)C(N)=O)[C@@H](C)O [Peptidomimetic 894, Ac-wGKEQCVE-Nle-YTD-NH2] (Ac-[dW]GKEQCVE[Nle]YTD-NH2)",−1.63,0.01 µM,0.012 µM,"magnitude of the calculated AUCs compared with full-length SP-A, 10-mer, 20-mer and several peptidomimetics (eosinophils; eosinophils, RTCA): much smaller"
Ac-GDFRYSDGTPVNYTNWYRGE-NH2 [Peptidomimetic 889],–,–,1.79 µM,–
"Ac-KEQAVEMYTD-NH2 [Peptidomimetic 884, Ac-KEQAVEMYTD-NH2]",–,–,10.6 µM,–
"Ac-KEQCVEMYTD (N-terminus assumed) [10-mer peptide, KEQCVEMYTD, reference compound]",−2.62,24.00 µM,16 µM,"airway hyperresponsiveness (mouse model of asthma): reduce; airway mucus production (mouse model of asthma): reduce; eosinophilia (mouse model of asthma): reduce; average AUC (decrease in cell index) (eosinophils; eosinophils, RTCA): -2.62; EC50 (eosinophils; [1]): 16 µM; normalized cell index tracings over time (peptide activity) (eosinophils; eosinophils, RTCA): decline in peptide activity after 24 hours"
"Ac-KEQCVEMYTD-NH2 [Peptidomimetic 856, Ac-KEQCVEMYTD-NH2]",–,–,8.21 µM,–
"Ac-KEQCVEMYTD-OH [Peptidomimetic 870, Ac-KEQCVEMYTD-acid]",–,–,10.8 µM,–
"Ac-KEQSVEMYTD-NH2 [Peptidomimetic 883, Ac-KEQSVEMYTD-NH2]",–,–,9.41 µM,–
Ac-SDGTPVNYTNWYRGEPAGRGKEQ-NH2 [Peptidomimetic 888],–,–,0.035 µM,–
"Ac-WGKEQCVEMYTD-NH2 [Peptidomimetic 867, Ac-WGKEQCVEMYTD-NH2]",−9.06,1.96 µM,–,cytotoxic effect on eosinophils as measured by AUC (eosinophils): most robust cytotoxic effect; also recorded: most comparable response to full-length SP-A; EC50 (eosinophils; [1]): 0.95 µM
Full-length SP-A: Full-length surfactant protein A; served as the positive control for eosinophil cell death,−13.89,0.86 µM,–,"average AUC (decrease in cell index) (eosinophils; eosinophils, RTCA): −13.89; eosinophil cell death (eosinophils; eosinophils, RTCA): induced eosinophil cell death in a dose-dependent manner; EC50 (eosinophils; eosinophils, RTCA, concentration range 1, 3, 10 and 30 μg/ml, read-out: EC50 (half maximal effective concentration, based on AUC at each dose)): 0.158 µM"
"H-KEQCVEMYTD-OH [Peptidomimetic 871, H-KEQCVEMYTD-acid]",–,–,2.52 µM,–
"PAGRGKEQCVEMYTDGQWND [20-mer peptide, reference compound]",−3.50,13.10 µM,14.7 µM,"airway hyperresponsiveness (mouse model of asthma): reduce; airway mucus production (mouse model of asthma): reduce; eosinophilia (mouse model of asthma): reduce; average AUC (decrease in cell index) (eosinophils; eosinophils, RTCA): -3.50; EC50 (eosinophils; [1]): 14.7 µM; normalized cell index tracings over time (peptide activity) (eosinophils; eosinophils, RTCA): decline in peptide activity after 24 hours"
